Measured values published in patent publication US20210278408A1, “METHODS OF TREATMENT OF CANCER WITH SUBSTITUTED PYRROLE AND PYRAZOLE COMPOUNDS AND DIAGNOSIS OF CANCERS SUSCEPTIBLE TO TREATMENT WITH SUBSTITUTED PYRROLE AND PYRAZOLE COMPOUNDS” (Bantam Pharmaceutical, LLC, priority 2018, published 2021).
Where a name gives a salt, the structure may show the parent alone.

System: BJAB (malignant human B-cell-line)
Assay: BJAB cell proliferation
Assay type: cell-based
Settings: BJAB (malignant human B-cell-line) cell proliferation, EC50; read-out: BJAB
Excerpt: In certain embodiments, the therapeutic compound is one of the compounds of the compound table below. […] In certain embodiments, the therapeutic compound is a compound having an activity as “A,” “B” or “C” in the table below. In certain embodiments, the therapeutic compound is a compound having an activity as “A” or “B” in the table below. In certain embodiments, the therapeutic compound is a compound having an activity as “A” in the table below.
In certain embodiments, the therapeutic compound is one of the compounds of the compound table below, optionally provided as a pharmaceutically-acceptable salt or N-oxide, and/or a solvate or hydrate. […] In certain embodiments, the therapeutic compound is a compound having an activity as “A,” “B” or “C” in the table below. In certain embodiments, the therapeutic compound is a compound having an activity as “A” or “B” in the table below. In certain embodiments, the therapeutic compound is a compound having an activity as “A” in the table below.

SMILES	EC50
Cc1nn(-c2nc(N3CCC(F)(F)CC3)c(SC(C)C)s2)c(C(=O)O)c1-c1cccc(F)c1 [Compound B18, 1-(4-(4,4-difluoropiperidin-1-yl)-5-(isopropylthio)thiazol-2-yl)-4-(3-fluorophenyl)-3-methyl-1H-pyrazole-5-carboxylic acid]	1 to 5 µM
COC(=O)c1c(-c2cccc(F)c2)c(C)nn1-c1nc(C2=CCC(C(F)(F)F)CC2)c(SC(C)C)s1 (stereo not shown) [Compound B20, methyl 4-(3-fluorophenyl)-1-(5-(isopropylthio)-4-(4-(trifluoromethyl)cyclohex-1-en-1-yl)thiazol-2-yl)-3-methyl-1H-pyrazole-5-carboxylate]	< 1 µM
Cc1nn(-c2nc(C3CCC(C(F)(F)F)CC3)cs2)c(C(=O)O)c1-c1cccc(F)c1 (stereo not shown) [Compound B21, 4-(3-fluorophenyl)-3-methyl-1-(4-(4-(trifluoromethyl)cyclohexyl)thiazol-2-yl)-1H-pyrazole-5-carboxylic acid]	> 20 µM
Cc1nn(-c2nc(-c3ccc(C(F)(F)F)cc3)c(CC(C)C)s2)c(C(=O)O)c1-c1cccc(F)c1 [Compound B22, 4-(3-fluorophenyl)-1-(5-isobutyl-4-(4-(trifluoromethyl)phenyl)thiazol-2-yl)-3-methyl-1H-pyrazole-5-carboxylic acid]	< 1 µM
Cc1nn(-c2nc(N3CCN(CC(F)(F)F)CC3)c(SC(C)C)s2)c(C(=O)O)c1-c1cccc(F)c1 [Compound B23, 4-(3-fluorophenyl)-1-(5-(isopropylthio)-4-(4-(2,2,2-trifluoroethyl)piperazin-1-yl)thiazol-2-yl)-3-methyl-1H-pyrazole-5-carboxylic acid]	5 to 10 µM
Cc1nn(-c2nc(N3CCC(C#N)CC3)c(SC(C)C)s2)c(C(=O)O)c1-c1cccc(F)c1 [Compound B24, 1-(4-(4-cyanopiperidin-1-yl)-5-(isopropylthio)thiazol-2-yl)-4-(3-fluorophenyl)-3-methyl-1H-pyrazole-5-carboxylic acid]	10 to 25 µM
Cc1nn(-c2nc(N3CCN(C4CC4)CC3)c(SC(C)C)s2)c(C(=O)O)c1-c1cccc(F)c1 [Compound B25, 1-(4-(4-cyclopropylpiperazin-1-yl)-5-(isopropylthio)thiazol-2-yl)-4-(3-fluorophenyl)-3-methyl-1H-pyrazole-5-carboxylic acid]	5 to 10 µM
CCN1CCN(c2nc(-n3nc(C)c(-c4cccc(F)c4)c3C(=O)O)sc2SC(C)C)CC1 [Compound B26, 1-(4-(4-ethylpiperazin-1-yl)-5-(isopropylthio)thiazol-2-yl)-4-(3-fluorophenyl)-3-methyl-1H-pyrazole-5-carboxylic acid]	> 20 µM
CC(=O)N1CCN(c2nc(-n3nc(C)c(-c4cccc(F)c4)c3C(=O)O)sc2SC(C)C)CC1 [Compound B27, 1-(4-(4-acetylpiperazin-1-yl)-5-(isopropylthio)thiazol-2-yl)-4-(3-fluorophenyl)-3-methyl-1H-pyrazole-5-carboxylic acid]	> 20 µM
Cc1nn(-c2nc(N3CCC(C)CC3)c(SC(C)C)s2)c(C(=O)O)c1-c1cccc(F)c1 [Compound B28, 4-(3-fluorophenyl)-1-(5-(isopropylthio)-4-(4-methylpiperidin-1-yl)thiazol-2-yl)-3-methyl-1H-pyrazole-5-carboxylic acid]	1 to 5 µM
Cc1nn(-c2nnc(-c3ccc(C(F)(F)F)cc3)s2)c(C(=O)O)c1-c1cccc(F)c1 [Compound B30, 4-(3-fluorophenyl)-3-methyl-1-(5-(4-(trifluoromethyl)phenyl)-1,3,4-thiadiazol-2-yl)-1H-pyrazole-5-carboxylic acid]	> 20 µM
COCCN(C)c1sc(-n2nc(C)c(-c3cccc(F)c3)c2C(=O)O)nc1-c1ccc(C(F)(F)F)cc1 [Compound B31, 4-(3-fluorophenyl)-1-(5-((2-methoxyethyl)(methyl)amino)-4-(4-(trifluoromethyl)phenyl)thiazol-2-yl)-3-methyl-1H-pyrazole-5-carboxylic acid]	1 to 5 µM
Cc1nn(-c2nc(N3CCC(C)(C)CC3)c(SC(C)C)s2)c(C(=O)O)c1-c1cccc(F)c1 [Compound B32, 1-(4-(4,4-dimethylpiperidin-1-yl)-5-(isopropylthio)thiazol-2-yl)-4-(3-fluorophenyl)-3-methyl-1H-pyrazole-5-carboxylic acid]	< 1 µM
Cc1nn(-c2nc(N3CCN(C(=O)OC(C)(C)C)CC3)c(SC(C)C)s2)c(C(=O)O)c1-c1cccc(F)c1 [Compound B33, 1-(4-(4-(tert-butoxycarbonyl)piperazin-1-yl)-5-(isopropylthio)thiazol-2-yl)-4-(3-fluorophenyl)-3-methyl-1H-pyrazole-5-carboxylic acid]	> 20 µM
Cc1nn(-c2nc(N3CCC(C(F)(F)F)C3)c(SC(C)C)s2)c(C(=O)O)c1-c1cccc(F)c1 (stereo not shown) [Compound B34, 4-(3-fluorophenyl)-1-(5-(isopropylthio)-4-(3-(trifluoromethyl)pyrrolidin-1-yl)thiazol-2-yl)-3-methyl-1H-pyrazole-5-carboxylic acid]	1 to 5 µM
Cc1nn(-c2nc(N3CCNCC3)c(SC(C)C)s2)c(C(=O)O)c1-c1cccc(F)c1 [Compound B35, 4-(3-fluorophenyl)-1-(5-(isopropylthio)-4-(piperazin-1-yl)thiazol-2-yl)-3-methyl-1H-pyrazole-5-carboxylic acid hydrochloric acid salt]	> 20 µM
CC(C)=Cc1sc(-n2nc(C)c(-c3cccc(F)c3)c2C(=O)O)nc1-c1ccc(C(F)(F)F)cc1 [Compound B36, 4-(3-fluorophenyl)-3-methyl-1-(5-(2-methylprop-1-en-1-yl)-4-(4-(trifluoromethyl)phenyl)thiazol-2-yl)-1H-pyrazole-5-carboxylic acid]	< 1 µM
CC(C)=Cc1nc(-n2nc(C)c(-c3cccc(F)c3)c2C(=O)O)sc1-c1ccc(C(F)(F)F)cc1 [Compound B37, 4-(3-fluorophenyl)-3-methyl-1-(4-(2-methylprop-1-en-1-yl)-5-(4-(trifluoromethyl)phenyl)thiazol-2-yl)-1H-pyrazole-5-carboxylic acid]	10 to 25 µM
Cc1nn(-c2nc(-c3ccc(C(F)(F)F)cc3)c(-c3ccc(C(F)(F)F)cc3)s2)c(C(=O)O)c1-c1cccc(F)c1 [Compound B38, 1-(4,5-bis(4-(trifluoromethyl)phenyl)thiazol-2-yl)-4-(3-fluorophenyl)-3-methyl-1H-pyrazole-5-carboxylic acid]	< 1 µM
Cc1nn(-c2nc(-c3ccc(C(F)(F)F)cc3)c(-c3ccc(C(F)(F)F)cc3)s2)cc1-c1cccc(F)c1 [Compound B39, 2-(4-(3-fluorophenyl)-3-methyl-1H-pyrazol-1-yl)-4,5-bis(4-(trifluoromethyl)phenyl)thiazole]	> 20 µM
Cc1nn(-c2nc(N3CCC(C(C)(C)C)CC3)c(SC(C)C)s2)c(C(=O)O)c1-c1cccc(F)c1 [Compound B40, 1-(4-(4-(tert-butyl)piperidin-1-yl)-5-(isopropylthio)thiazol-2-yl)-4-(3-fluorophenyl)-3-methyl-1H-pyrazole-5-carboxylic acid]	< 1 µM
Cc1nn(-c2nc(N3CCC4(CC3)CC4)c(SC(C)C)s2)c(C(=O)O)c1-c1cccc(F)c1 [Compound B41, 4-(3-fluorophenyl)-1-(5-(isopropylthio)-4-(6-azaspiro[2.5]octan-6-yl)thiazol-2-yl)-3-methyl-1H-pyrazole-5-carboxylic acid]	1 to 5 µM
COC1(C(F)(F)F)CCN(c2nc(-n3nc(C)c(-c4cccc(F)c4)c3C(=O)O)sc2SC(C)C)CC1 [Compound B42, 4-(3-fluorophenyl)-1-(5-(isopropylthio)-4-(4-methoxy-4-(trifluoromethyl)piperidin-1-yl)thiazol-2-yl)-3-methyl-1H-pyrazole-5-carboxylic acid]	< 1 µM
COc1ccc(-c2nc(-n3nc(C)c(-c4cccc(F)c4)c3C(=O)O)sc2-c2ccc(C(F)(F)F)cc2)cc1 [Compound B43, 4-(3-fluorophenyl)-1-(4-(4-methoxyphenyl)-5-(4-(trifluoromethyl)phenyl)thiazol-2-yl)-3-methyl-1H-pyrazole-5-carboxylic acid]	1 to 5 µM
COc1ccc(-c2nc(-n3nc(C)c(-c4cccc(F)c4)c3C(=O)O)sc2-c2ccc(OC)cc2)cc1 [Compound B44, 1-(4,5-bis(4-methoxyphenyl)thiazol-2-yl)-4-(3-fluorophenyl)-3-methyl-1H-pyrazole-5-carboxylic acid]	10 to 25 µM
COc1ccc(-c2sc(-n3nc(C)c(-c4cccc(F)c4)c3C(=O)O)nc2-c2ccc(C(F)(F)F)cc2)cc1 [Compound B45, 4-(3-fluorophenyl)-1-(5-(4-methoxyphenyl)-4-(4-(trifluoromethyl)phenyl)thiazol-2-yl)-3-methyl-1H-pyrazole-5-carboxylic acid]	< 1 µM
Cc1nn(-c2nc(N3CCN(C(C)(C)C)C(=O)C3)c(SC(C)C)s2)c(C(=O)O)c1-c1cccc(F)c1 [Compound B46, 1-(4-(4-(tert-butyl)-3-oxopiperazin-1-yl)-5-(isopropylthio)thiazol-2-yl)-4-(3-fluorophenyl)-3-methyl-1H-pyrazole-5-carboxylic acid]	> 20 µM
CNC(=O)CCc1sc(-n2nc(C)c(-c3cccc(F)c3)c2C(=O)O)nc1-c1ccc(C(F)(F)F)cc1 [Compound B47, 4-(3-fluorophenyl)-3-methyl-1-(5-(3-(methylamino)-3-oxopropyl)-4-(4-(trifluoromethyl)phenyl)thiazol-2-yl)-1H-pyrazole-5-carboxylic acid]	> 20 µM
